{"source": "ChEMBL document CHEMBL1151119", "about": "“Isolation and structure of the cytostatic lignan glycoside phyllanthostatin A” (1988)", "tested_on": "P388", "assay": "Cytotoxicity against mouse P388 cells", "type": "functional", "details": "read-out: ED50 (the source's name)"}
{"smiles": "COc1cc2cc(COC(C)=O)c(C(=O)O[C@@H]3O[C@H](CO)[C@@H](O)[C@H](O)[C@H]3O)c(-c3ccc4c(c3)OCO4)c2cc1OC", "note": "[PHYLLANTHOSTATIN A]", "values": [{"measurement": "EC50", "value": 4, "unit": "µg/mL"}]}
